Patent US20220281848A1, “PYRAZOLE-SUBSTITUTED PYRROLIDINONES AS HERBICIDES” (FMC Corporation, priority 2019, published 2022)

What was measured:
Assay type in all cases: in vivo
plants = assay: Test D post-emergence, other plants of Tables D2 and D4; settings: for damage to plant (100=total damage to plant; 0=no damage to plant), ABUTH / damage to plant (100=total damage to plant; 0=no damage to plant), AMARE / damage to plant (100=total damage to plant; 0=no damage to plant), BIDPI / damage to plant (100=total damage to plant; 0=no damage to plant), BRAPL / damage to plant (100=total damage to plant; 0=no damage to plant), CYPES / damage to plant (100=total damage to plant; 0=no damage to plant), DIGSA / damage to plant (100=total damage to plant; 0=no damage to plant), ECHCG / damage to plant (100=total damage to plant; 0=no damage to plant), ELEIN / damage to plant (100=total damage to plant; 0=no damage to plant), EPHHL / damage to plant (100=total damage to plant; 0=no damage to plant), GLXMA / damage to plant (100=total damage to plant; 0=no damage to plant), IPOHE / damage to plant (100=total damage to plant; 0=no damage to plant), ORYSA / damage to plant (100=total damage to plant; 0=no damage to plant), PANMI / damage to plant (100=total damage to plant; 0=no damage to plant), SETFA / damage to plant (100=total damage to plant; 0=no damage to plant), SORVU: post-emergence
In short: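 Seeds treated with herbicide safener; sown in soil; glasshouse, 16 h light, 65% humidity. Sprayed day 1 (pre) or ~day 12 (post). Spray in 0.2% v/v adjuvant. Scored 0–100 damage: 20 DAA pre, 15 d post.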

[1] = tested on: velvetleaf (Abutilon theophrasti, ABUTH); assay: Test A pre-emergence, velvetleaf; settings: after 13 d
In short: (§1)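 Damage rated visually at 13 d on a 0–100 scale (100 = plant killed). Pre-emergence spray one day after sowing; doses 15.625, 62.5 or 250 g/ha from an acetone/water 50:50 formulation with 0.5% Tween 20. Glasshouse at 24/16° C., 14 h photoperiod, 65% humidity.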

[2] = tested on: barnyardgrass (Echinochloa crus-galli, ECHCG); assay: Test A pre-emergence, barnyardgrass; settings: after 13 d
In short: as §1

[3] = tested on: redroot pigweed (Amaranthus retroflexus, AMARE); assay: Test A pre-emergence, redroot pigweed; settings: after 13 d
In short: as §1

corn (Zea mays, ZEAMX) = assay: Test A post-emergence, corn; settings: after 13 d
In short: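 Visual damage rating (0 no damage to 100 total damage) was made 13 d after spraying. The spray was 15.625, 62.5 or 250 g/ha in 50:50 acetone/water with 0.5% Tween 20, applied to 8-day-old glasshouse plants kept at 24/16° C, 14 h light and 65% humidity.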

[4] = "Cereals" Postemergent, Rates 130, evaluated after 15 d
[5] = "Cereals" Postemergent, Rates 250, evaluated after 15 d
[6] = "Cereals" Postemergent, Rates 500, evaluated after 15 d

## CN1CC(c2cc(C(F)(F)F)n(C)n2)C(C(=O)Nc2ccc(F)nc2F)C1=O (racemic) [Compound 22]
plants; [4]
  ALOMY damage rating (100=total damage to plant; 0=no damage to plant): 0
  AVEFA damage rating (100=total damage to plant; 0=no damage to plant): 0
  BEAVA damage rating (100=total damage to plant; 0=no damage to plant): 0
  BROTE damage rating (100=total damage to plant; 0=no damage to plant): 0
  BRSNN damage rating (100=total damage to plant; 0=no damage to plant): 10
  CHEAL damage rating (100=total damage to plant; 0=no damage to plant): 0
  GALAP damage rating (100=total damage to plant; 0=no damage to plant): 0
  HORVW damage rating (100=total damage to plant; 0=no damage to plant): 0
  KCHSC damage rating (100=total damage to plant; 0=no damage to plant): 0
  LOLPE damage rating (100=total damage to plant; 0=no damage to plant): 0
  POAAN damage rating (100=total damage to plant; 0=no damage to plant): 0
  POLCO damage rating (100=total damage to plant; 0=no damage to plant): 0
  STEME damage rating (100=total damage to plant; 0=no damage to plant): 0
  VERPE damage rating (100=total damage to plant; 0=no damage to plant): 0
plants; [5]
  ALOMY damage rating (100=total damage to plant; 0=no damage to plant): 0
  AVEFA damage rating (100=total damage to plant; 0=no damage to plant): 0
  BEAVA damage rating (100=total damage to plant; 0=no damage to plant): 0
  BROTE damage rating (100=total damage to plant; 0=no damage to plant): 0
  BRSNN damage rating (100=total damage to plant; 0=no damage to plant): 10
  CHEAL damage rating (100=total damage to plant; 0=no damage to plant): 20
  GALAP damage rating (100=total damage to plant; 0=no damage to plant): 40
  HORVW damage rating (100=total damage to plant; 0=no damage to plant): 10
  KCHSC damage rating (100=total damage to plant; 0=no damage to plant): 0
  LOLPE damage rating (100=total damage to plant; 0=no damage to plant): 0
  POAAN damage rating (100=total damage to plant; 0=no damage to plant): 0
  POLCO damage rating (100=total damage to plant; 0=no damage to plant): 0
  STEME damage rating (100=total damage to plant; 0=no damage to plant): 0
  VERPE damage rating (100=total damage to plant; 0=no damage to plant): 50
plants; [6]
  ALOMY damage rating (100=total damage to plant; 0=no damage to plant): 10
  AVEFA damage rating (100=total damage to plant; 0=no damage to plant): 10
  BEAVA damage rating (100=total damage to plant; 0=no damage to plant): 10
  BROTE damage rating (100=total damage to plant; 0=no damage to plant): 0
  BRSNN damage rating (100=total damage to plant; 0=no damage to plant): 10
  CHEAL damage rating (100=total damage to plant; 0=no damage to plant): 30
  GALAP damage rating (100=total damage to plant; 0=no damage to plant): 10
  HORVW damage rating (100=total damage to plant; 0=no damage to plant): 20
  KCHSC damage rating (100=total damage to plant; 0=no damage to plant): 0
  LOLPE damage rating (100=total damage to plant; 0=no damage to plant): 0
  POAAN damage rating (100=total damage to plant; 0=no damage to plant): 0
  POLCO damage rating (100=total damage to plant; 0=no damage to plant): 10
  STEME damage rating (100=total damage to plant; 0=no damage to plant): 30
  VERPE damage rating (100=total damage to plant; 0=no damage to plant): 60
plants; SINAR, "Cereals" Postemergent, Rates 500, evaluated after 15 d
  SINAR damage rating (100=total damage to plant; 0=no damage to plant): 20
plants; rate 130, evaluated after 15 d
  damage to plant (100=total damage to plant; 0=no damage to plant), ABUTH: 0
  damage to plant (100=total damage to plant; 0=no damage to plant), AMARE: 0
  damage to plant (100=total damage to plant; 0=no damage to plant), BIDPI: 0
  damage to plant (100=total damage to plant; 0=no damage to plant), BRAPL: 0
  damage to plant (100=total damage to plant; 0=no damage to plant), CYPES: 0
  damage to plant (100=total damage to plant; 0=no damage to plant), DIGSA: 40
  damage to plant (100=total damage to plant; 0=no damage to plant), ECHCG: 0
  damage to plant (100=total damage to plant; 0=no damage to plant), ELEIN: 10
  damage to plant (100=total damage to plant; 0=no damage to plant), EPHHL: 0
  damage to plant (100=total damage to plant; 0=no damage to plant), GLXMA: 0
  damage to plant (100=total damage to plant; 0=no damage to plant), IPOHE: 10
  damage to plant (100=total damage to plant; 0=no damage to plant), ORYSA: 0
  damage to plant (100=total damage to plant; 0=no damage to plant), PANMI: 70
  damage to plant (100=total damage to plant; 0=no damage to plant), SETFA: 0
  damage to plant (100=total damage to plant; 0=no damage to plant), SORVU: 0
plants; rate 250, evaluated after 15 d
  damage to plant (100=total damage to plant; 0=no damage to plant), ABUTH: 10
  damage to plant (100=total damage to plant; 0=no damage to plant), AMARE: 0
  damage to plant (100=total damage to plant; 0=no damage to plant), BIDPI: 0
  damage to plant (100=total damage to plant; 0=no damage to plant), BRAPL: 50
  damage to plant (100=total damage to plant; 0=no damage to plant), CYPES: 0
  damage to plant (100=total damage to plant; 0=no damage to plant), DIGSA: 60
  damage to plant (100=total damage to plant; 0=no damage to plant), ECHCG: 40
  damage to plant (100=total damage to plant; 0=no damage to plant), ELEIN: 10
  damage to plant (100=total damage to plant; 0=no damage to plant), EPHHL: 20
  damage to plant (100=total damage to plant; 0=no damage to plant), GLXMA: 10
  damage to plant (100=total damage to plant; 0=no damage to plant), IPOHE: 30
  damage to plant (100=total damage to plant; 0=no damage to plant), ORYSA: 0
  damage to plant (100=total damage to plant; 0=no damage to plant), PANMI: 20
  damage to plant (100=total damage to plant; 0=no damage to plant), SETFA: 0
  damage to plant (100=total damage to plant; 0=no damage to plant), SORVU: 0
plants; rate 500, evaluated after 15 d
  damage to plant (100=total damage to plant; 0=no damage to plant), ABUTH: 30
  damage to plant (100=total damage to plant; 0=no damage to plant), AMARE: 0
  damage to plant (100=total damage to plant; 0=no damage to plant), BIDPI: 20
  damage to plant (100=total damage to plant; 0=no damage to plant), BRAPL: 70
  damage to plant (100=total damage to plant; 0=no damage to plant), CYPES: 10
  damage to plant (100=total damage to plant; 0=no damage to plant), DIGSA: 60
  damage to plant (100=total damage to plant; 0=no damage to plant), ECHCG: 50
  damage to plant (100=total damage to plant; 0=no damage to plant), ELEIN: 40
  damage to plant (100=total damage to plant; 0=no damage to plant), EPHHL: 30
  damage to plant (100=total damage to plant; 0=no damage to plant), GLXMA: 40
  damage to plant (100=total damage to plant; 0=no damage to plant), IPOHE: 50
  damage to plant (100=total damage to plant; 0=no damage to plant), ORYSA: 0
  damage to plant (100=total damage to plant; 0=no damage to plant), PANMI: 40
  damage to plant (100=total damage to plant; 0=no damage to plant), SETFA: 20
  damage to plant (100=total damage to plant; 0=no damage to plant), SORVU: 0
[1]; Pre-Emergence at 15.625 g/ha
  damage to plant (100=total damage; 0=no damage) ABUTH: 0
[1]; Pre-Emergence at 62.5 g/ha
  damage to plant (100=total damage; 0=no damage) ABUTH: 0
[1]; Pre-Emergence at 250 g/ha
  damage to plant (100=total damage; 0=no damage) ABUTH: 0
[2]; Pre-Emergence at 15.625 g/ha
  damage to plant (100=total damage; 0=no damage) ECHCG: 70
[2]; Pre-Emergence at 62.5 g/ha
  damage to plant (100=total damage; 0=no damage) ECHCG: 90
[2]; Pre-Emergence at 250 g/ha
  damage to plant (100=total damage; 0=no damage) ECHCG: 90
[3]; Pre-Emergence at 15.625 g/ha
  damage to plant (100=total damage; 0=no damage) AMARE: 0
[3]; Pre-Emergence at 62.5 g/ha
  damage to plant (100=total damage; 0=no damage) AMARE: 10
[3]; Pre-Emergence at 250 g/ha
  damage to plant (100=total damage; 0=no damage) AMARE: 20
Corn (Zea mays, ZEAMX); Post-Emergence at 15.625 g/ha
  damage to plant (100=total damage; 0=no damage) ZEAMX: 20
Corn (Zea mays, ZEAMX); Post-Emergence at 62.5 g/ha
  damage to plant (100=total damage; 0=no damage) ZEAMX: 40
Corn (Zea mays, ZEAMX); Post-Emergence at 250 g/ha
  damage to plant (100=total damage; 0=no damage) ZEAMX: 80
